Tests used:
Experiment in all cases: relative viability (nuclei count vs DMSO), 5 days (fraction); higher = more cells survive
[1] = compound: NCC(=O)Nc1ccc(-n2nc(C(F)(F)F)cc2-c2ccc3c(ccc4ccccc43)c2)cc1 + Nc1ncn([C@H]2C[C@H](O)[C@@H](CO)O2)c(=O)n1 [Decitabine] (partner 2 µM)
Method in brief: (§1)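 One day after seeding in 1536-well plates, lung cancer cell lines were dosed by pin tool. Dosing was either single-drug or a fixed anchor-drug dose plus five library-drug doses (not always all listed) in √10 steps. After 5 days, nuclei were stained in one fix-and-stain step and counted on 4× images, and relative viability is the nuclei count of treated wells over that of vehicle wells, given as the median of duplicate plates.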

[2] = compound: NCC(=O)Nc1ccc(-n2nc(C(F)(F)F)cc2-c2ccc3c(ccc4ccccc43)c2)cc1 + NC(=O)Nc1cc(-c2cccc(F)c2)sc1C(=O)N[C@H]1CCCNC1 [AZD7762] (partner 0.2 µM)
Method in brief: as §1

[3] = compound: C1CSC2=C(C(=O)N1)SC3=C2C=C(C=C3)O [kb NB 142-70] + CC(=O)c1c(C)c2cnc(Nc3ccc(N4CCNCC4)cn3)nc2n(C2CCCC2)c1=O [Palbociclib] (partner 0.5 µM)
Method in brief: as §1

kb NB 142-70 + Alpelisib = compound: C1CSC2=C(C(=O)N1)SC3=C2C=C(C=C3)O [kb NB 142-70] + Cc1nc(NC(=O)N2CCC[C@H]2C(N)=O)sc1-c1ccnc(C(C)(C)C(F)(F)F)c1 [Alpelisib] (partner 2 µM)
Method in brief: as §1

| Cell Line | relative viability ([1]; first compound 0.02 µM) | relative viability ([1]; first compound 0.06325 µM) | relative viability ([1]; first compound 0.2 µM) | relative viability ([1]; first compound 0.6325 µM) | relative viability ([1]; first compound 2 µM) | relative viability ([2]; first compound 0.02 µM) | relative viability ([2]; first compound 0.06325 µM) | relative viability ([2]; first compound 0.2 µM) | relative viability ([2]; first compound 0.6325 µM) | relative viability ([2]; first compound 2 µM) | relative viability ([3]; first compound 0.1 µM) | relative viability ([3]; first compound 1 µM) | relative viability ([3]; first compound 3.162 µM) | relative viability (kb NB 142-70 + Alpelisib; first compound 0.1 µM) | relative viability (kb NB 142-70 + Alpelisib; first compound 1 µM) | relative viability (kb NB 142-70 + Alpelisib; first compound 3.162 µM) |
| --- | --- | --- | --- | --- | --- | --- | --- | --- | --- | --- | --- | --- | --- | --- | --- | --- |
| LK-2 | 0.283 | 0.268 | 0.249 | 0.319 | 0.278 | 0.459 | 0.47 | 0.402 | 0.493 | 0.381 | 0.661 | 0.476 | 0.352 | 1.1 | 0.72 | 0.438 |
| 201T | 0.838 | 0.846 | 0.901 | 0.87 | 0.846 | 0.599 | 0.657 | 0.625 | 0.656 | 0.601 | 0.35 | 0.361 | 0.394 | 1.01 | 1.02 | 1 |
| HCC-44 | 0.885 | 0.956 | 0.933 | 0.905 | 0.927 | 1 | 1.05 | 0.997 | 1.01 | 1.03 | 0.96 | 1 | 1.03 | 0.772 | 0.875 | 0.735 |
| H3255 | 0.669 | 0.479 | 0.643 | 0.715 | 0.667 | 0.853 | 0.914 | 0.959 | 0.974 | 0.898 | 0.323 | 0.314 | 0.316 | 0.621 | 0.754 | 0.768 |
| NCI-H647 | 0.44 | 0.436 | 0.423 | 0.436 | 0.301 | 0.384 | 0.39 | 0.524 | 0.431 | 0.527 | 0.289 | 0.372 | 0.414 | 1.1 | 1.43 | 0.698 |
| NCI-H23 | 0.32 | 0.357 | 0.317 | 0.311 | 0.324 | 0.191 | 0.249 | 0.219 | 0.274 | 0.277 | 0.409 | 0.471 | 0.28 | 0.553 | 0.586 | 0.315 |
| NCI-H1944 | 0.492 | 0.43 | 0.436 | 0.392 | 0.44 | 0.476 | 0.484 | 0.551 | 0.47 | 0.559 | 0.334 | 0.358 | 0.376 | 0.874 | 0.817 | 0.853 |
| NCI-H1793 | 0.518 | 0.459 | 0.549 | 0.494 | 0.487 | 0.434 | 0.568 | 0.573 | 0.447 | 0.742 | 0.301 | 0.329 | 0.357 | 0.589 | 0.711 | 0.636 |
| NCI-H460 | 0.486 | 0.525 | 0.478 | 0.479 | 0.366 | 0.773 | 0.684 | 0.633 | 0.623 | 0.643 | 0.166 | 0.233 | 0.171 | 0.521 | 0.435 | 0.244 |
| EKVX | 0.365 | 0.368 | 0.369 | 0.393 | 0.361 | 0.748 | 0.823 | 0.651 | 0.607 | 0.738 | 0.361 | 0.393 | 0.37 | 0.854 | 0.849 | 0.96 |
| NCI-H358 | 0.217 | 0.211 | 0.224 | 0.206 | 0.217 | 0.535 | 0.593 | 0.607 | 0.609 | 0.526 | 0.127 | 0.136 | 0.0896 | 0.885 | 0.578 | 0.131 |
| EPLC-272H | 0.382 | 0.35 | 0.331 | 0.423 | 0.372 | 0.362 | 0.208 | 0.196 | 0.167 | 0.149 | 0.324 | 0.329 | 0.28 | 0.906 | 0.899 | 0.509 |
| NCI-H1395 | 0.667 | 0.735 | 0.673 | 0.692 | 0.738 | 0.373 | 0.421 | 0.37 | 0.407 | 0.38 | 0.582 | 0.685 | 0.631 | 1.29 | 1.15 | 0.66 |
| NCI-H2126 | 0.568 | 0.568 | 0.583 | 0.596 | 0.572 | 0.969 | 1.12 | 1.02 | 1.01 | 1.01 | 0.364 | 0.373 | 0.345 | 0.748 | 0.763 | 0.758 |
| LXF-289 | 0.376 | 0.388 | 0.371 | 0.416 | 0.333 | 1.14 | 1.13 | 1.01 | 1.12 | 1.06 | 0.578 | 0.613 | 0.567 | 1.03 | 1.02 | 0.917 |
| NCI-H2405 | 0.686 | 0.759 | 0.837 | 0.723 | 0.754 | 0.725 | 0.781 | 0.774 | 0.728 | 0.718 | 0.552 | 0.563 | 0.499 | 0.743 | 0.802 | 0.723 |
| NCI-H1755 | 0.692 | 0.739 | 0.686 | 0.701 | 0.727 | 0.448 | 0.569 | 0.448 | 0.394 | 0.449 | 0.466 | 0.411 | 0.44 | 0.968 | 0.915 | 0.929 |
| HCC-78 | 0.788 | 0.763 | 0.698 | 0.675 | 0.658 | 0.77 | 0.597 | 0.599 | 0.668 | 0.642 | 0.446 | 0.443 | 0.412 | 0.363 | 0.348 | 0.335 |
| LOU-NH91 | 0.836 | 0.829 | 0.816 | 0.849 | 0.84 | 0.799 | 0.783 | 0.784 | 0.804 | 0.795 | 0.494 | 0.536 | 0.417 | 0.705 | 0.675 | 0.492 |
| NCI-H3122 | 0.445 | 0.418 | 0.495 | 0.448 | 0.435 | 0.897 | 0.983 | 1 | 1.01 | 0.969 | 0.181 | 0.199 | 0.187 | 0.828 | 0.7 | 0.442 |
| HCC-827 | 0.315 | 0.212 | 0.31 | 0.309 | 0.335 | 0.213 | 0.189 | 0.245 | 0.316 | 0.235 | 0.525 | 0.459 | 0.396 | 0.868 | 0.928 | 0.851 |
| NCI-H1975 | 0.407 | 0.39 | 0.43 | 0.404 | 0.464 | 0.732 | 0.699 | 0.777 | 0.691 | 0.708 | 0.599 | 0.662 | 0.435 | 0.665 | 0.604 | 0.344 |
| NCI-H1651 | 0.594 | 0.351 | 0.591 | 0.619 | 0.613 | 0.447 | 0.433 | 0.513 | 0.47 | 0.423 | 0.527 | 0.555 | 0.526 | 0.938 | 0.934 | 0.364 |
| NCI-H441 | 0.274 | 0.276 | 0.225 | 0.266 | 0.248 | 1.12 | 1.1 | 1.32 | 1.06 | 1.12 | 0.237 | 0.209 | 0.169 | 0.92 | 0.62 | 0.484 |
| LCLC-103H | 0.735 | 0.742 | 0.809 | 0.763 | 0.748 | 0.796 | 0.79 | 0.752 | 0.812 | 0.818 | 0.47 | 0.475 | 0.504 | 0.998 | 0.944 | 0.961 |
| LCLC-97TM1 | 0.237 | 0.24 | 0.252 | 0.19 | 0.221 | 0.284 | 0.253 | 0.28 | 0.39 | 0.159 | 0.229 | 0.216 | 0.193 | 0.236 | 0.245 | 0.181 |
| NCI-H727 | 0.941 | 0.647 | 0.869 | 0.874 | 0.812 | 0.531 | 0.53 | 0.58 | 0.696 | 0.599 | 0.681 | 0.653 | 0.678 | 0.65 | 0.72 | 0.495 |
| NCI-H1355 | 0.371 | 0.362 | 0.403 | 0.408 | 0.347 | 0.717 | 0.776 | 0.797 | 0.776 | 0.806 | 0.417 | 0.39 | 0.404 | 0.924 | 0.86 | 0.822 |
| HOP-62 | 0.214 | 0.228 | 0.225 | 0.206 | 0.192 | 0.646 | 0.482 | 0.693 | 0.566 | 0.711 | 0.496 | 0.473 | 0.441 | 1.18 | 0.777 | 0.937 |
| NCI-H2085 | 0.577 | 0.519 | 0.592 | 0.556 | 0.534 | 0.943 | 1.03 | 1.04 | 1.06 | 1.04 | 0.466 | 0.452 | 0.367 | 0.869 | 0.901 | 0.658 |
